Data taken from article PMC11242173 (International Journal of Molecular Sciences, 2024).
In brackets after ≈: the same amount, converted by molar mass.

How the values were obtained:
HCT-8 cells = test: Cytotoxicity (cell viability) assay in HCT-8 cells; type: cell-based, human; details: uninfected HCT-8 cells, 72 h
Procedure: HCT-8, MRC5, A549, and Calu-3 cells seeded on 96-well plates 24 h before the assay were exposed to increasing concentrations of compounds or the vehicle as a control. Cytotoxicity was evaluated after 48 h for MRC5 and Calu-3 cells or after 72 h for A549 and HCT-8 cells, using the CellTiter-Glo assay (Promega, Milan, Italy) or the ATPlite assay (PerkinElmer, Milan, Italy). The cytotoxicity of the tested compounds was expressed as cytotoxic concentration (CC50).

hCoV-OC43 = test: Focus forming reduction assay (FFRA), hCoV-OC43 in HCT-8 cells; details: for EC50 / EC90: hCoV-OC43, FFRA in HCT-8 cells, treatment before, during and after infection, 72 h p.i.; for SI (ratio of CC50 to EC50): hCoV-OC43, HCT-8 cells

Row | SMILES | CC50 (HCT-8 cells) | EC50 (hCoV-OC43) | EC90 (hCoV-OC43) | SI (ratio of CC50 to EC50) (hCoV-OC43)
1 | Oc1cc(O)c2c(c1)OC1(c3ccc(O)c(O)c3)Oc3cc(O)c4c(c3C2C1O)OC(c1ccc(O)c(O)c1)C(O)C4 (centres unmarked) [PAC A1, PAC-A1] | >400 µg/mL | 4.10 ± 0.71 µg/mL (≈ 7.11 µM) | 139.35 ± 2.06 µg/mL (≈ 242 µM) | >97.56
2 | Oc1cc(O)c2c(c1)O[C@@]1(c3ccc(O)c(O)c3)Oc3cc(O)c4c(c3[C@@H]2[C@H]1O)O[C@H](c1ccc(O)c(O)c1)[C@H](O)C4 [PAC A2, PAC-A2] | >400 µg/mL | 6.58 ± 0.40 µg/mL (≈ 11.4 µM) | 100.74 ± 0.66 µg/mL (≈ 175 µM) | >60.79
3 | Oc1cc(O)c2c(c1)O[C@H](c1ccc(O)c(O)c1)[C@H](O)[C@H]2c1c(O)cc(O)c2c1O[C@H](c1ccc(O)c(O)c1)[C@@H](O)C2 [PAC B1, PAC-B1] | >400 µg/mL | 167.02 ± 6.51 µg/mL (≈ 289 µM) | >400 µg/mL | >2.39
4 | Oc1cc(O)c2c(c1)O[C@H](c1ccc(O)c(O)c1)[C@H](O)[C@H]2c1c(O)cc(O)c2c1O[C@H](c1ccc(O)c(O)c1)[C@H](O)C2 [PAC B2, PAC-B2] | >400 µg/mL | 142.41 ± 8.93 µg/mL (≈ 246 µM) | >400 µg/mL | >2.81
5 | Oc1cc(O)c2c(c1)O[C@H](c1ccc(O)c(O)c1)[C@@H](O)[C@@H]2c1c(O)cc(O)c2c1O[C@H](c1ccc(O)c(O)c1)[C@@H](O)C2 [PAC B3, PAC-B3] | >400 µg/mL | 134.92 ± 4.14 µg/mL (≈ 233 µM) | >400 µg/mL | >2.96
